Test results from patent US12281118B2, “Nitrogen-containing fused heterocyclic SHP2 inhibitor compound, preparation method, and use” (SHANGHAI RINGENE BIOPHARMA CO., LTD., priority 2018, dated 2025).
Where two headings read alike, the source gives them in different places.

Columns and labels:
SHP2 enzyme = SHP2 enzyme (Homo sapiens (Human), UniProt Q06124); assay: Inhibitory activity against SHP2 enzyme (Caliper conversion rate); assay type: biochemical; details: read-out: SHP2 Enzyme Inhibition IC50 Value
Experimental: (1) Preparing 1×Reaction Buffer according to the BPS Biosciences' Instructions for Use of the SHP2 enzyme. (2) Preparing a compound concentration gradient: Test the test compound at 10 μM under 3× dilution for 10 concentrations, diluting to a 100% dimethyl sulfoxide solution at a 100× final concentration in a 384-well plate, and diluting the compound with Precision 4× for 10 concentrations. Transferring 250 nL of the compound at the 100× final concentration to a target plate OptiPlate-384F using a dispenser Echo 550. […] (3) Preparing the activation peptide solution at a 5× final concentration with the 1×Reaction Buffer, adding 5 μL of the solution to a reaction plate, respectively, and centrifuging at 1000 rpm for 1 min. (4) Preparing an enzyme solution at a 2.5× final concentration with the 1×Reaction Buffer, adding 10 μL of the solution to the reaction plate, respectively, centrifuging at 1000 rpm for 1 min, and incubating at room temperature for 60 min. (5) Preparing a substrate peptide solution at a 2.5× final concentration with the 1×Reaction Buffer, centrifuging at 1000 rpm for 1 min, and incubating at room temperature for 30 min. (6) Adding 30 μL of stop test solution to stop the reaction, centrifuging at 1000 rpm for […], and mixing well by shaking. (7) Reading the conversion rate with a Caliper EZ Reader. (7) Data analysis:
Wherein: Conversion %/_sample is the reading of a conversion rate of a sample; Conversion %_min: mean of negative control wells, which represents the reading of a conversion rate in absence of enzyme activity wells; Conversion %_max: mean of a ratio of positive control wells, which represents the reading of a conversion rate in absence of compound inhibition wells.

MV4-11 leukemia cells = assay: Inhibition of proliferation of MV4-11 leukemia cells (CellTiter-Glo, 72 h); assay type: cell-based; details: read-out: IC50 value, MV4-11 cell proliferation
Experimental: Specific experimental procedures: 1) At Day 0: Inoculating trypsin-digested cells in 96-well plate and suspending the plate in cell culture medium; measure cell density using an automatic cell counter, diluting the cells with the culture medium to appropriate density, adding 100 μl of cell suspension in the 96-well plate, and incubating a cell-free medium as a control well in a cell incubator with […] at 37° C. overnight; 2) Day 1: Treating test compounds of the cells using a drug for a total of 8 concentrations, and diluting at a 3× concentration, wherein 10 μM is a starting test concentration of the test compounds. […] IC50 values are obtained by a four-parameter regression using software attached to the plate reader (the specific results are shown in Table 2).

[1] = Homo sapiens, MV4-11, 72 h, in uM

Sequence of SHP2 enzyme (Q06124 whole entry): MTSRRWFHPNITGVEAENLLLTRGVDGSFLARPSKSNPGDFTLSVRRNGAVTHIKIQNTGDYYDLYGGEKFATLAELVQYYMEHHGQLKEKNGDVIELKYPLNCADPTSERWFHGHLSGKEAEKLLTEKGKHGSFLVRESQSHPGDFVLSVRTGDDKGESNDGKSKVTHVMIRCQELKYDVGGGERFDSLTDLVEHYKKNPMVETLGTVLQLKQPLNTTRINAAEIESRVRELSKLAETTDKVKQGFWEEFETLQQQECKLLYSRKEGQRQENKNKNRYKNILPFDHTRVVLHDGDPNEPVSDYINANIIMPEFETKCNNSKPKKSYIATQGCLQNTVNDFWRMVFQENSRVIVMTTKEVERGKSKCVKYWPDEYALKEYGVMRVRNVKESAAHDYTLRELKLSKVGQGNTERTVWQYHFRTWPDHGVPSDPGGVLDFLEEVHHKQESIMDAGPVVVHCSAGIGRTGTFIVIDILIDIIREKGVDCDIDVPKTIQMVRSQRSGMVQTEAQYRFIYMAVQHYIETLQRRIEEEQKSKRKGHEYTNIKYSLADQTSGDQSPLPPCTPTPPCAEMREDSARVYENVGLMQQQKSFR

Row | Compound | IC50 (SHP2 enzyme) | IC50 (MV4-11 leukemia cells; Homo sapiens, MV4-11, 72 h) | IC50 (MV4-11 leukemia cells; 72 h) | IC50 (MV4-11 leukemia cells; [1])
1 | Cc1nc(N2CCC3(CC2)Cc2ncccc2[C@H]3N)n2ccnc2c1Sc1ccnc(N)c1Cl [Example 6, (S)-1′-(8-((2-amino-3-chloropyridin-4-yl)thio)-7-methylimidazo [1,2-c]pyrimidin-5-yl)-5,7-dihydrospiro [cyclopentano [b]pyridine-6,4′-piperidine]-5-amine] | 0.0013 µM | 0.0087 µM |  | 
2 | CC1(N)CCN(c2ncc(-c3cccc(Cl)c3Cl)c3nccn23)CC1 [Comparative Compound 2, 1-(8-(2,3-dichlorophenyl)imidazo [1,2-c]pyrimidin-5-yl)-4-methylpiperidin-4-amine, reference compound] | 3.46 µM | > 10 µM |  | 
3 | Cc1cc(N2CCC3(CC2)Cc2ccccc2[C@H]3N)n2ncnc2c1Sc1ccnc(N)c1Cl [Example 19, (S)-1′-(8-((2-amino-3-chloropyridin-4-yl)thio)-7-methyl-[1,2,4]triazolo [1,5-a]pyridin-5-yl)-1,3-dihydrospiro [indene-2,4′-piperidine]-1-amine] | 0.0295 µM | 0.687 µM |  | 
4 | Nc1nc(N2CCC3(CC2)Cc2ccccc2[C@H]3N)n2ccnc2c1Sc1cccnc1C(F)(F)F [Example 5] | 0.0008 µM | < 0.0015 µM |  | 
5 | Cc1nc(N2CCC3(CC2)Cc2cc(F)c(F)cc2[C@H]3N)n2ccnc2c1Sc1ccnc(N)c1Cl [Example 8, (S)-1′-(8-((2-amino-3-chloropyridin-4-yl)thio)-7-methylimidazo [1,2-c]pyrimidin-5-yl)-5,6-difluoro-1,3-dihydrospiro [indene-2,4′-piperidine]-1-amine] | 0.0037 µM | 0.012 µM |  | 
6 | Cc1nc(N2CCC(C)(N)CC2)n2ccnc2c1-c1cccc(Cl)c1Cl [Comparative Compound 1, 1-(8-(2,3-dichlorophenyl)-7-methylimidazo [1,2-c]pyrimidin-5-yl)-4-methylpiperidin-4-amine, reference compound] | 0.141 µM | 1.41 µM |  | 
7 | Cc1nc(N2CCC3(CC2)Oc2ccccc2[C@H]3N)n2ccnc2c1Sc1ccnc(N)c1Cl [Example 13, (R)-1′-(8-((2-amino-3-chloropyridin-4-yl)thio)-7-methylimidazo [1,2-c]pyrimidin-5-yl)-3H-spiro [benzofuran-2,4′-piperidine]-3-amine] | 0.0018 µM | 0.0392 µM |  | 
8 | Cc1nc(N2CCC3(CC2)Cc2ccccc2[C@H]3N)n2ccnc2c1Sc1ccnc(NC2CC2)c1Cl [Example 3, (S)-1′-(8-((3-chloro-2-(cyclopropylamino)pyridin-4-yl)thio)-7-methylimidazo [1,2-c]pyrimidin-5-yl)-1,3-dihydrospiro [indene-2,4′-piperidine]-1-amine] | 0.001 µM | 0.0028 µM |  | 
9 | CC1(N)CCN(c2nc(N)c(-c3cccc(Cl)c3Cl)c3nccn23)CC1 [Example 27, 5-(4-amino-4-methylpiperidin-1-yl)-8-(2,3-dichlorophenyl) imidazole [1,2-c] pyrimidin-7-amine] | 0.287 µM |  | 2.55 µM | 
10 | Cc1cc(N2CCC3(CC2)Cc2ccccc2[C@H]3N)n2cnnc2c1Sc1ccnc(N)c1Cl [Example 18, (S)-1′-(8-((2-amino-3-chloropyridin-4-yl)thio)-7-methyl-[1,2,4]triazolo [4,3-a]pyridin-5-yl)-1,3-dihydrospiro [indene-2,4′-piperidine]-1-amine] | 0.0246 µM | 0.86 µM |  | 
11 | COc1ccc2c(c1)[C@@H](N)C1(CCN(c3nc(C)c(Sc4ccnc(N)c4Cl)c4nccn34)CC1)C2 [Example 7, (S)-1′-(8-((2-amino-3-chloropyridin-4-yl)thio)-7-methylimidazo [1,2-c]pyrimidin-5-yl)-6-methoxy-1,3-dihydrospiro [indene-2,4′-piperidine]-1-amine] | 0.0021 µM | 0.0093 µM |  | 
12 | Cc1nc(N2CCC(C)(N)CC2)n2ncnc2c1-c1cccc(Cl)c1Cl [Example 21, 1-(8-(2,3-dichlorophenyl)-7-methyl-[1,2,4]triazole [1,5-c]pyrimidin-5-yl)-4-methylpiperidin-4-amine] |  |  |  | > 10 µM
13 | Cc1nc(N2CCC3(CC2)Cc2ccccc2C3N)n2ccnc2c1Sc1ccnc(N)c1Cl (centres unmarked) [Example 20, 1′-(8-((2-amino-3-chloropyridin-4-yl)thio)-7-methylimidazo [1,2-c]pyrimidin-5-yl)-1,3-dihydrospiro [indene-2,4′-piperidine]-1-amine] | 0.0038 µM | 0.0094 µM |  | 
14 | Cc1cc(N2CCC(C)(N)CC2)n2ccnc2c1-c1cccc(Cl)c1Cl [Example 24, 1-(8-(2,3-dichlorophenyl)-7-methylimidazolo [1,2-a]pyridin-5-yl)-4-methylpiperidin-4-amine] | 0.706 µM |  |  | 5.4 µM
15 | Cc1nc(N2CCC(C)(N)CC2)n2ccnc2c1Sc1cccc(Cl)c1Cl [Example 25, 1-(8 ((2,3-dichlorophenyl)sulfanyl)-7-methylimidazole [1,2-c]pyrimidin-5-yl)-4-methylpiperidin-4-amine] |  | 1.36 µM |  | 
16 | Cc1nc(N2CCC3(CC2)Cc2ccccc2[C@H]3N)n2ccnc2c1-c1cccnc1C(F)(F)F [Example 16, (S)-1′-(7-methyl-8-(2-(trifluoromethyl)pyridin-3-yl)imidazo [1,2-c]pyrimidin-5-yl)-1,3-dihydrospiro [indene-2,4′-piperidine]-1-amine] | 0.0095 µM | 0.108 µM |  | 
17 | Cc1nc(N2CCC3(CC2)Cc2ccccc2[C@H]3N)n2ccnc2c1Sc1cccnc1C(F)(F)F [Example 2] |  | 0.0313 µM |  | 
18 | Cc1nc(N2CCC3(CC2)Cc2ccccc2[C@H]3N)n2ccnc2c1-c1ccnc(N)c1Cl [Example 15, (S)-1′-(8-(2-amino-3-chloropyridin-4-yl)-7-methylimidazo [1,2-c]pyrimidin-5-yl)-1,3-dihydrospiro [indene-2,4′-piperidine]-1-amine] | 0.0121 µM | 0.135 µM |  | 
19 | Cc1nc(N2CCC(C)(N)CC2)n2cnnc2c1-c1cccc(Cl)c1Cl [Example 22, 1-(8-(2,3-dichlorophenyl)-7-methyl-[1,2,4]triazole [4,3-c]pyrimidin-5-yl)-4-methylpiperidin-4-amine] |  |  |  | > 10 µM
20 | Nc1nccc(Sc2c(CF)nc(N3CCC4(CC3)Cc3ccccc3[C@H]4N)n3ccnc23)c1Cl [Example 12, (S)-1′-(8-((2-amino-3-chloropyridin-4-yl)thio)-7-(fluoromethyl)imidazo [1,2-c]pyrimidin-5-yl)-1,3-dihydrospiro [indene-2,4′-piperidine]-1-amine] | 0.0029 µM | 0.0247 µM |  | 
21 | Cc1nc(N2CCC3(CCC[C@H]3N)CC2)n2ccnc2c1Sc1ccnc(N)c1Cl [Example 26, (R)-8-(8-((2-amino-3-chloropyridin-4-yl)thio)-7-methylimidazole [1,2-c]pyrimidin-5-yl)-8-azaspiro [4.5] quin-1-amine] | 0.0061 µM | 0.147 µM |  | 
22 | Cc1nc(N2CCC3(CC2)Cc2ncsc2[C@H]3N)n2ccnc2c1Sc1ccnc(N)c1Cl [Example 14, (S)-1′-(8-((2-amino-3-chloropyridin-4-yl)thio)-7-methylimidazo [1,2-c]pyrimidin-5-yl)-4,6-dihydrospiro [cyclopentano [d]thiazol-5,4′-piperidine]-6-amine] | 0.0031 µM | 0.0184 µM |  | 
23 | Cc1cc(N2CCC3(CC2)Cc2ccccc2[C@H]3N)n2ccnc2c1Sc1ccnc(N)c1Cl [Example 17, (S)-1′-(8-((2-amino-3-chloropyridin-4-yl)thio)-7-methylimidazo [1,2-a]pyridin-5-yl)-1,3-dihydrospiro [indene-2,4′-piperidine]-1-amine] | 0.0091 µM | 0.048 µM |  | 
24 | CC1(N)CCN(c2nc(CF)c(-c3cccc(Cl)c3Cl)c3nccn23)CC1 [Example 28, 1-(8-(2,3-dichlorophenyl)-7-(fluoromethylene)imidazole [1,2-c]pyrimidin-5-yl)-4-methylpiperidin-4-amine] |  | 2.01 µM |  | 
25 | Cc1cc(N2CCC(C)(N)CC2)n2cnnc2c1-c1cccc(Cl)c1Cl [Example 23, 1-(8-(2,3-dichlorophenyl)-7-methyl-[1,2,4]triazole [4,3-a]pyridin-5-yl)-4-methylpiperidin-4-amine] |  |  |  | > 10 µM
